# Experiments:
# [1] = system: radioactive-labeled rhinovirus ribonucleic acid; assay: Synergism test: inducible decomposition of P32-labeled rhinovirus RNA; type: biochemical; conditions: 30 minutes, pH 7.6, 36° C.
# Method: 6. The synergistic effect of the complexing agent (e.g. sodium pyrophosphate) and phosphorylating agent (e.g. adenosine triphosphate) was shown by means of the inducible decomposition of radioactive-labeled rhinovirus ribonucleic acid: Aliquotes (10^6 plaque-forming units) of purified rhinoviruses, the ribonucleic acid of which had been labeled with phosphorus-32, were incubated for 30 minutes with 5 n moles of adenosine triphosphate, either separately or with increasing quantities of sodium pyrophosphate at a pH-value of 7.6 and 36° C. As control values sodium pyrophosphate was used in various concentrations without adenosine triphosphate.
# [2] = system: rhinovirus-ribonucleic acid; assay: Role of the hydrolyzable β-γ-oxygen-bridge in autocatalytic degradation of rhinovirus RNA; type: biochemical
# From the text: 3. The essential role of the hydrolyzable β-γ-oxygen-bridge in the nucleoside triphosphate for the autocatalytic degradation of the rhinovirus-ribonucleic acid was shown by: […]
structure (smiles),measurement,setting,value
"O=P([O-])([O-])OP(=O)([O-])[O-].[Na+].[Na+].[Na+].[Na+] [Sodium pyrophosphate, sodium pyrophosphate]",% degradation of the viral ribonucleic acid,"[1]; adenosine triphosphate 0, sodium pyrophosphate 50 n moles",< 10%
same,% degradation of the viral ribonucleic acid,"[1]; adenosine triphosphate 0, sodium pyrophosphate 250 n moles",< 10%
same,% degradation of the viral ribonucleic acid,"[1]; adenosine triphosphate 0, sodium pyrophosphate 500 n moles",< 10%
Nc1ncnc2c1ncn2[C@@H]1O[C@H](COP(=O)(O)OP(=O)(O)NP(=O)(O)O)[C@@H](O)[C@H]1O [Adenosine-imido-diphosphate],initiating the autocatalytic inactivation of the rhinoviruses,[2],completely ineffective
Nc1ncnc2c1ncn2[C@@H]1O[C@H](COP(=O)(O)OP(=O)(O)O)[C@@H](O)[C@H]1O [adenosine diphosphate],induction of the autocatalytic RNA-degradation,[2],Inactivity
"Nc1ncnc2c1ncn2[C@@H]1O[C@H](COP(=O)(O)OP(=O)(O)OP(=O)(O)O)[C@@H](O)[C@H]1O [Adenosine triphosphate, adenosine triphosphate]",% degradation of the viral ribonucleic acid,"[1]; adenosine triphosphate 5 n moles, sodium pyrophosphate 0",< 7.5%
same,removal of P^32-labeled γ-phosphate during the reaction with rhinovirus,[2]; Mg^++ -ion free medium,formation of adenosine diphosphate and rhinovirus-bonded P^32

# Source: patent US4046879A, “Antiviral compositions” (priority 1975, dated 1977)
